In assay [1] the test system is BMP6. Put plainly: Cell assay HTRF BMP6 (Table 15). Format: cell-based.
Assay [2] deals with TGFb. Put plainly: Cell assay HTRF TGFb (Table 15). Format: cell-based. As to conditions: read-out: HRTF TGFb (IC50).
The target in assay [3] is ACVR2A (Homo sapiens, UniProt P27037). The assay is described as follows: LanthaScreen Eu kinase binding assay, BMP type II receptor ACVR2A. As to conditions: 10-point titration from 10 μM, 3-fold serial dilution, Life Technologies. The source says: (§1) For the detailed description of LanthaScreen™ Eu kinase binding assay condition, please see: https://www.thermofisher.com/us/en/home/industrial/pharma-biopharma/drug-discovery-development/target-and-lead-identification-and-validation/kinasebiology/kinase-activity-assays/lanthascreentm-eu-kinas e-binding-assay/lanthascreen-eu-kinase-binding-assay-validation-table.html.

Assay [4] addresses T1, ALK2 (Mus musculus, UniProt P37172).
T1 construct: endogenous in cells; host or cells: C2C12-BRE (BRE-Luc reporter line, G418 selection)
T1 sequence (P37172 21-509): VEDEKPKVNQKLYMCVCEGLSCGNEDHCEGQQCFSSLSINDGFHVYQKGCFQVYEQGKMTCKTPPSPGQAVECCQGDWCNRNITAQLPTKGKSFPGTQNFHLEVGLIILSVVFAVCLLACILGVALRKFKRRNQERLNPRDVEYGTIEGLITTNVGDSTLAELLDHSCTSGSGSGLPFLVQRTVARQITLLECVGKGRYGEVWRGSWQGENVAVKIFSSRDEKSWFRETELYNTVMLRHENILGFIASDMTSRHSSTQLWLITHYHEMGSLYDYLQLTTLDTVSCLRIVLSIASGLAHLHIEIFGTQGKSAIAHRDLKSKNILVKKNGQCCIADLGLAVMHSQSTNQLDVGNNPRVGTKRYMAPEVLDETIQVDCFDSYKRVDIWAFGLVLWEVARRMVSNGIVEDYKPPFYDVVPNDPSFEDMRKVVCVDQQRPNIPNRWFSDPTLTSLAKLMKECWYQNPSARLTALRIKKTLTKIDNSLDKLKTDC
Put plainly: Luciferase reporter gene assay for ALK2 activity (C2C12 BRE-Luc SMAD1/5/8 reporter, BMP6 agonist). In kind it is cell-based. As to conditions: BMP6 50 ng/mL. In short, it runs like this: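 TGFβ activity was measured in HEK293T SBE-Luc cells stimulated with 5 ng/mL TGFβ, at compound 10000-30 nM final. ALK2 activity was measured in C2C12 BRE-Luc cells stimulated with 50 ng/mL BMP6, at compound 1000-0.3 nM final. Compound was preincubated 45 min in 2% FBS medium; after ≥18 h agonist exposure, luminescence was read and inhibition expressed as % signal loss versus background-subtracted agonist controls.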
A general note: A reporter such as luciferase makes a cellular process visible.

Assay [5] concerns the target TGFβR2 (Homo sapiens, UniProt P37173). Put plainly: LanthaScreen Eu kinase binding assay, BMP type II receptor TGFbR2. As to conditions: 10-point titration from 10 μM, 3-fold serial dilution, Life Technologies.
Text: as §1

The source of these data is US20230000869A1, “NOVEL ALK2 INHIBITORS AND METHODS FOR INHIBITING BMP SIGNALING” (The Brigham and Women's Hospital, Inc., priority 2017, published 2023).

Chain of TGFβR2 (P37173 23-567): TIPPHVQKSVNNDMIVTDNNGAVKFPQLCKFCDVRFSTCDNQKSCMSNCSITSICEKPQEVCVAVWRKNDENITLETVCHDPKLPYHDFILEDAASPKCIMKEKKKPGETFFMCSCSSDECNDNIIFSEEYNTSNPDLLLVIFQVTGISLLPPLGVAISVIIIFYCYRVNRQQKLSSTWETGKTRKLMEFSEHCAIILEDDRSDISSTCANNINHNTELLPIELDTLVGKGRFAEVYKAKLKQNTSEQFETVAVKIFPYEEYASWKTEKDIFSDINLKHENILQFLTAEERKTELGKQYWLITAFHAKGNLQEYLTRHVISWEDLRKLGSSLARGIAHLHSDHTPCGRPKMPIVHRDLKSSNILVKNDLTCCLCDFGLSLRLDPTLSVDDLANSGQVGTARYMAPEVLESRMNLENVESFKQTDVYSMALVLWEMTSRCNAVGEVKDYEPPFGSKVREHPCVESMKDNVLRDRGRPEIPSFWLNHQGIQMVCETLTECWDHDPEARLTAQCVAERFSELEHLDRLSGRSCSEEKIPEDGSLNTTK
Chain of ACVR2A (P27037 20-513): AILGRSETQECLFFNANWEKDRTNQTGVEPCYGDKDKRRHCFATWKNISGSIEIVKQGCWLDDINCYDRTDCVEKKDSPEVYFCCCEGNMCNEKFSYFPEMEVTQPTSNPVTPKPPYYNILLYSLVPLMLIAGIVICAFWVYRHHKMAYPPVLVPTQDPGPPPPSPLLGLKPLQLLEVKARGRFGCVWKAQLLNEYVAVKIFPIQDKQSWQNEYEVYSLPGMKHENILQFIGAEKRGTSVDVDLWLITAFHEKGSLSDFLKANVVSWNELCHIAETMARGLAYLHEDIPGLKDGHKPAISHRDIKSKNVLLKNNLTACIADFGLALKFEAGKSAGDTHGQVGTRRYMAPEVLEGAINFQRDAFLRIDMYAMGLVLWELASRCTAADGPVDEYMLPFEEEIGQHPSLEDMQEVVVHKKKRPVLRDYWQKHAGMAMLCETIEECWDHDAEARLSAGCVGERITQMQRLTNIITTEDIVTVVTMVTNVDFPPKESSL

On to `Cc1cc(-c2cnn3cc(N4CCC(N5CCN(C)CC5)CC4)cnc23)c2ccccc2n1` [Compound 8], for which the half-maximal inhibitory concentration (IC50) – broadly, the point on the concentration scale where inhibition reaches its midpoint – was 270 nM in assay [1]; 2040 nM in assay [2]; 1280 nM in assay [3]; 5 nM in assay [4]; 191 nM in assay [5].

The compound `Cc1cc(-c2cnn3cc(N4CCC(N5CCOCC5)CC4)cnc23)c2ccccc2n1` [Compound 11] showed a concentration for half-maximal inhibition (IC50) in assay [4] of 54 nM.

For the compound `COc1cc2c(-c3cnn4cc(N5CCC(N6CCN(C)CC6)CC5)cnc34)ccnc2cc1F` [Compound 15, 7-fluoro-6-methoxy-4-(6-(4-(4-methylpiperazin-1-yl)piperidin-1-yl)pyrazolo[1,5-a]pyrimidin-3-yl)quinoline], in assay [4], the IC50 came to 19 nM.

In the case of `Cc1cc(-c2cnn3cc(N4CCC(N5CCNCC5)CC4)cnc23)c2ccccc2n1` [Compound 34], the half-maximal inhibitory concentration (IC50) in assay [4] was 37 nM.

Regarding `c1ccc2c(-c3cnn4cc(-c5ccc(N6CCNCC6)cc5)cnc34)ccnc2c1` [TRND00262637-13], the IC50 is 69 nM in assay [1], 9290 nM in assay [2], 14.5 nM in assay [3] and 8.06 nM in assay [5].
